Reference: patent US20260091143A1, “NEAR-INFRARED IMAGING AGENT AND USES THEREOF” (CASE WESTERN RESERVE UNIVERSITY, priority 2022, published 2026)
Where no end group is shown, it is not given here.

How the values were obtained:
[1] = tested on: LN-229 glioma flank tumor; test: In vivo fluorescent imaging of tumor signal in LN-229 flank tumor-bearing nude mice; settings: for p-value, in vivo tumor ROI mean, ICG vs SBK2-CLE-ICG: ICG 400 nmol/kg vs 300 nmol/kg SBK2-CLE-ICG; for p-value, in vivo tumor ROI mean, ICG vs SBK2-CLE-ICG / p-value, in vivo tumor ROI mean, ICG vs SBK2-ICG / p-value, in vivo tumor ROI mean, ICG vs Scram-CLE-ICG / p-value, in vivo tumor ROI mean, ICG vs Scram-ICG: Welch's t-test; for p-value, in vivo tumor ROI mean, ICG vs SBK2-ICG: ICG 400 nmol/kg vs 300 nmol/kg SBK2-ICG; for p-value, in vivo tumor ROI mean, ICG vs Scram-CLE-ICG: ICG 400 nmol/kg vs 300 nmol/kg Scram-CLE-ICG; for p-value, in vivo tumor ROI mean, ICG vs Scram-ICG: ICG 400 nmol/kg vs 300 nmol/kg Scram-ICG
Source text: (§1) All applicable institutional and/or NIH guidelines for the care and use of animals were followed. The Case Western Reserve University Institutional Animal Care and Use Committee reviewed and approved the animal protocols. Outbred homozygous female nude mice (Fox1^nu/Fox1^nu) were purchased from Jackson Laboratory, Bar Harbor, ME, USA. Details of the human glioblastoma LN-229 cell line have been described previously. LN-229 cells express the PTPμ biomarker and have been used in previous studies for evaluating PTPμ-targeted agents using different imaging modalities. Flank tumors were started in the right flank of mice at approximately 7 weeks of age by injecting a mixture of 2×10^6 cells and Matrigel® Matrix (Corning®, Corning Inc., Corning, NY, USA). Experiments were performed in mice 4 to 8 weeks after implanting the tumors.
(§2) The IVIS Spectrum In vivo Imaging System and Living Image analysis software, (Perkin Elmer, Hopkinton, MA, USA) were used for acquisition and analysis of mouse images. Prior to the experiment, mice were weighed, and baseline images acquired using the appropriate filter sets and the autoexposure setting. Three filter sets for excitation/emission were used: 745 nm/800 nm, 745 nm/820 nm, 745 nm/840 nm. The filter set showing highest fluorescence intensity for a fluorophore was used throughout for that dye. For ICG, 745 nm/820 nm was used and for IRDye® 800CW and Tide Fluor™ 8WS, 745 nm/800 nm was used. Agent stocks were diluted in saline or PBS to ˜100 μM and the volume needed for the desired dose of 300 nmol/kg or 400 nmol/kg calculated. Doses were loaded into polyurethane tubing and connected to a 1 mL syringe as previously described. Mice were anesthetized in an induction chamber with 2% isoflurane-oxygen and moved onto a 37° C. heated platform with a nose cone. 26-gauge veterinary catheters were placed in each tail and the preloaded tubing was connected. Agents were injected over 30 sec, catheters were removed, and animals placed in the prepared Spectrum imaging chamber. Images were acquired beginning 10 min after injecting the agents. For SBK2-CCLE-IR800 and Scram-CCLE-IR800, images were acquired every 10 min for 60 min. For the ICG-labeled and TF8WS-labeled peptides, images were acquired at 10 min, 30 min, 1 h, 2 h, 4 h, 8 h, and 24 h. At the end of the imaging time, the animals were euthanized by CO2 asphyxiation, and the tumor and other organs excised and imaged on the Spectrum.
(§3) Living Image analysis software was used for region of interest (ROI) analysis of the optical data. Images acquired for each time point consist of a fluorescent image superimposed on a photographic image. Binning was set to 1 and in vivo tumor ROIs were manually drawn based on contours visible in the black and white photograph for each timepoint. After outlining the tumor ROIs, fluorescence was measured with the built-in Spectrum function. For excised tumors, kidneys, spleen and liver, ROIs were drawn around the perimeter of the tumor or organ.
(§4) LivingImage software measures fluorescence intensity in units of radiant efficiency. For these analyses, average radiant efficiency measurements in (photons/s/cm^2/steradian)/(μW/cm^2) were used for further comparisons to account for differences in tumor and organ size. GraphPad Prism 9 was used for plots and statistical analyses. Where indicated, means for pairs of agents were compared using a two-tailed t-test with Welch's correction and statistical significance was assumed at p<0.05. Welch's correction was used to eliminate assumptions about variance between the groups being compared.

[2] = tested on: LN-229 glioma flank tumor; test: Ex vivo fluorescence of excised tumors; type: in vivo, mice; settings: 24 h, ICG-labeled agents 300 nmol/kg, ICG 400 nmol/kg, Welch's t-test
Source text: as §1, §2
Living Image analysis software was used for region of interest (ROI) analysis of the optical data. […] After outlining the tumor ROIs, fluorescence was measured with the built-in Spectrum function. […]
LivingImage software measures fluorescence intensity in units of radiant efficiency. […]

[3] = Ex vivo fluorescence in excised kidneys, spleen and liver; parameters: species or system mice
Source text: as §2, §3, §4

[4] = Whole-body and ventral fluorescent imaging of biodistribution and clearance; type: in vivo, mice; settings: for clearance via the renal system: mouse, in vivo
Source text: as §2

[5] = RP-HPLC and LC-MS/MS of IRDye 800CW-labeled agent stocks warmed to room temperature; type: physicochemical; settings: RP-HPLC
Source text: The hydrophilic nature and pH sensitivity of the IRDye® 800CW precluded on-resin coupling in the organic solvents and TFA-based cleavage cocktail used for ICG-labeled molecules. IRDye® 800CW maleimide was conjugated in aqueous solution following the manufacturer's recommended protocol to cysteine residues at the N-termini of the peptides and obtained at >95% purity from PolyPeptide Group. Additional LC-MS/MS analyses using an Orbitrap Elite LC-MS, purchased via an NIH shared instrument grant, 1S10RR031537-01, were performed on these agents by the Lerner Research Institute Proteomics Core at the Cleveland Clinic.
Similar to Tide Fluor™ 8WS, the hydrophilic nature of the IRDye® 800CW results in elution of the SBK2-CCLE-IR800 at around 25 min (FIG. 7). In assessing the IRDye® 800CW-labeled agents by RP-HPLC however, a second peak appeared when the SBK2-CCLE-IR800 and Scrambled-CCLE-IR800 stocks were warmed to room temperature. LC-MS/MS analysis was performed and confirmed the identity of the main peak as belonging the agents with the closed succinimide ring, while the second peak, representing around 30% of the material, and eluting slightly earlier than the main peak was identified as containing an open succinimide ring (FIG. 1).

[6] = Kidney, 24 h, ICG-labeled agents 300 nmol/kg, ICG 400 nmol/kg, Welch's t-test
[7] = Liver, 24 h, ICG-labeled agents 300 nmol/kg, ICG 400 nmol/kg, Welch's t-test
[8] = Spleen, 24 h, ICG-labeled agents 300 nmol/kg, ICG 400 nmol/kg, Welch's t-test

## CC1(C)C(/C=C/C=C/C=C/C=C2\N(CCCCS(=O)(=O)O)c3ccc4ccccc4c3C2(C)C)=[N+](CCCCS(=O)(=O)[O-])c2ccc3ccccc3c21 [ICG, indocyanine green]
[1]; 10 min
  p-value, in vivo tumor ROI mean, ICG vs SBK2-CLE-ICG: <0.001
  p-value, in vivo tumor ROI mean, ICG vs SBK2-ICG: <0.001
  p-value, in vivo tumor ROI mean, ICG vs Scram-CLE-ICG: <0.001
  p-value, in vivo tumor ROI mean, ICG vs Scram-ICG: <0.001
[1]; 30 min
  p-value, in vivo tumor ROI mean, ICG vs SBK2-CLE-ICG: <0.001
  p-value, in vivo tumor ROI mean, ICG vs SBK2-ICG: <0.001
  p-value, in vivo tumor ROI mean, ICG vs Scram-CLE-ICG: <0.001
  p-value, in vivo tumor ROI mean, ICG vs Scram-ICG: <0.001
[1]; 24 h
  p-value, in vivo tumor ROI mean, ICG vs SBK2-CLE-ICG: <0.001
  p-value, in vivo tumor ROI mean, ICG vs SBK2-ICG: <0.001
  p-value, in vivo tumor ROI mean, ICG vs Scram-CLE-ICG: ns
  p-value, in vivo tumor ROI mean, ICG vs Scram-ICG: <0.001
[1]; ICG dye 400 nmol/kg
  in vivo tumor fluorescence produced: very little in vivo tumor fluorescence
  time of peak in vivo tumor signal: ≤ 10 min
[2]
  p-value, average radiant efficiency of excised tumor vs SBK2-CLE-ICG: 0.003
  p-value, average radiant efficiency of excised tumor vs SBK2-ICG: <0.001
  p-value, average radiant efficiency of excised tumor vs Scram-CLE-ICG: 0.019
  p-value, average radiant efficiency of excised tumor vs Scram-ICG: 0.003
[3]; [6]
  p-value, average radiant efficiency of excised kidney vs SBK2-CLE-ICG: <0.001
  p-value, average radiant efficiency of excised kidney vs SBK2-ICG: <0.001
  p-value, average radiant efficiency of excised kidney vs Scram-CLE-ICG: 0.008
  p-value, average radiant efficiency of excised kidney vs Scram-ICG: 0.003
[3]; [7]
  p-value, average radiant efficiency of excised liver vs SBK2-CLE-ICG: 0.004
  p-value, average radiant efficiency of excised liver vs SBK2-ICG: <0.001
  p-value, average radiant efficiency of excised liver vs Scram-CLE-ICG: <0.001
  p-value, average radiant efficiency of excised liver vs Scram-ICG: 0.013
[3]; [8]
  p-value, average radiant efficiency of excised spleen vs SBK2-CLE-ICG: <0.001
  p-value, average radiant efficiency of excised spleen vs SBK2-ICG: <0.001
  p-value, average radiant efficiency of excised spleen vs Scram-CLE-ICG: <0.001
  p-value, average radiant efficiency of excised spleen vs Scram-ICG: 0.004
[4]; ICG dye 400 nmol/kg
  clearance compared to ICG-conjugated peptides: cleared much more rapidly

## SBK2-CCLE-IR800: IRDye 800CW maleimide conjugated to N-terminal cysteine of C.GGSGGS.GEGDDFNWEQVNTLTKPTSD (SEQ ID NO: 50) ({C(IRDye 800CW maleimide)}-GGSGGSGEGDDFNWEQVNTLTKPTSD)
[1]; 400 nmol/kg, every ten minutes for 60 minutes
  difference in in vivo tumor average radiant efficiency vs Scram-CCLE-IR800: No significant differences
[1]; 400 nmol/kg, versus Scrambled control agents
  specific tumor labeling: no specific tumor labeling
[4]
  clearance via the renal system: more rapidly than expected
[5]
  second peak containing an open succinimide ring, share of the material: around 30%

## Scram-CCLE-IR800: IRDye 800CW maleimide conjugated to N-terminal cysteine of C.GGSGGS.GFTQPETGTDNDLWSVDNEK (SEQ ID NO: 51) ({C(IRDye 800CW maleimide)}-GGSGGSGFTQPETGTDNDLWSVDNEK)
[3]; 400 nmol/kg, 60 min, liver
  difference in liver fluorescence vs SBK2-CCLE-IR800: No significant difference
[4]
  clearance via the renal system: more rapidly than expected
[5]
  second peak containing an open succinimide ring, share of the material: around 30%
